In brackets after ≈: the same amount, converted by molar mass. Residues, ends and D or L forms follow the SMILES beside them. No end group written: not given here.
Assays:
[1] = test system: Pseudomonas aeruginosa
Description: (§1) The antimicrobial activity of synthetic piscidin 1, piscidin 2 and piscidin 3 (P1, P2 and P3) was tested against a variety of different bacteria.

[2] = test system: Enterococcus gallinarum; format: cell-based
Description: as §1

[3] = test system: Aeromonas hydrophilia; format: cell-based
Description: as §1

[4] = test system: Staphylococcus aureus
Description: as §1

[5] = test system: Escherichia coli
Description: as §1

[6] = test system: Staphylococcus epidermidis; format: cell-based
Description: as §1

[7] = test system: Enterococcus faecium; format: cell-based; conditions: Case 00-1437, vancomycin resistant, vanA; MHB
Description: as §1

[8] = test system: Streptococcus iniae; format: cell-based
Description: as §1

[9] = test system: bacteria; assay: Antibacterial activity of synthetic SEQ ID NO: 4 sequence; format: cell-based; conditions: synthetic sequence with tryptophan as X
Description: [SEQ ID NO: 4], where X is tryptophan or beta-hydroxytryptophan. It is tentatively believed that beta-hydroxytryptophan is present as X in the natural sequence.

[10] = test system: human pathogens; assay: Activity of dimeric peptide against human pathogens; format: cell-based
Description: (§2) where CC is linked via a disulfide bridge.

[11] = format: cell-based
Description: as §2

**Q.** With `CC[C@H](C)[C@H](NC(=O)CNC(=O)[C@H](CCCNC(=N)N)NC(=O)[C@H](Cc1ccccc1)NC(=O)[C@@H](NC(=O)[C@H](Cc1c[nH]cn1)NC(=O)[C@H](Cc1c[nH]cn1)NC(=O)[C@H](Cc1ccccc1)NC(=O)[C@@H](N)Cc1ccccc1)[C@@H](C)CC)C(=O)N[C@H](C(=O)N[C@@H](Cc1c[nH]cn1)C(=O)N[C@H](C(=O)NCC(=O)N[C@@H](CCCCN)C(=O)N[C@H](C(=O)N[C@H](C(=O)N[C@@H](Cc1c[nH]cn1)C(=O)N[C@@H](CCCNC(=N)N)C(=O)N[C@@H](CC(C)C)C(=O)N[C@H](C(=O)N[C@H](C(=O)NCC(N)=O)[C@@H](C)O)C(C)C)[C@@H](C)CC)[C@@H](C)O)C(C)C)C(C)C` [P1] (H-FFHHIFRGIVHVGKTIHRLVTG-NH2; N-terminus assumed) as the compound, how does the MBC [1] read?
**A.** 12.5 µg/mL (≈ 4.86 µM)

**Q.** What about the MIC [1] of the same compound?
**A.** 12.5 µg/mL (≈ 4.86 µM)

**Q.** What about the MBC [2] of the same compound?
**A.** 12.5 µg/mL (≈ 4.86 µM)

**Q.** And the MIC [2]?
**A.** 12.5 µg/mL (≈ 4.86 µM)

**Q.** And the MBC [3]?
**A.** 0.79 to 1.57 µg/mL

**Q.** And the MIC [3]?
**A.** 0.79 to 1.57 µg/mL

**Q.** Which MBC [4] does the source give for `CC[C@H](C)[C@H](NC(=O)CNC(=O)[C@H](CCCNC(=N)N)NC(=O)[C@H](Cc1ccccc1)NC(=O)[C@@H](NC(=O)[C@H](Cc1c[nH]cn1)NC(=O)[C@H](Cc1c[nH]cn1)NC(=O)[C@@H](NC(=O)[C@@H](N)Cc1ccccc1)[C@@H](C)CC)[C@@H](C)CC)C(=O)N[C@H](C(=O)N[C@@H](Cc1c[nH]cn1)C(=O)N[C@@H](C)C(=O)NCC(=O)N[C@@H](CCCNC(=N)N)C(=O)N[C@@H](CO)C(=O)N[C@H](C(=O)NCC(=O)N[C@@H](CCCNC(=N)N)C(=O)N[C@@H](Cc1ccccc1)C(=O)N[C@@H](CC(C)C)C(=O)N[C@H](C(=O)NCC(N)=O)[C@@H](C)O)[C@@H](C)CC)C(C)C` [P3] (H-FIHHIFRGIVHAGRSIGRFLTG-NH2; N-terminus assumed) here?
**A.** 3.13 µg/mL (≈ 1.26 µM)

**Q.** What about the MIC [4] of the same compound?
**A.** 3.13 µg/mL (≈ 1.26 µM)

**Q.** And the MBC [1]?
**A.** 25 µg/mL (≈ 10 µM)

**Q.** What about the MIC [1] of the same compound?
**A.** 25 µg/mL (≈ 10 µM)

**Q.** What about the MBC [5] of the same compound?
**A.** 3.13 µg/mL (≈ 1.26 µM)

**Q.** What about the MIC [5] of the same compound?
**A.** 3.13 µg/mL (≈ 1.26 µM)

**Q.** What about the MIC [6] of the same compound?
**A.** 3.13 µg/mL (≈ 1.26 µM)

**Q.** And the MIC [7]?
**A.** 3.13 to 6.25 µg/mL

**Q.** And the MBC [2]?
**A.** 50 µg/mL (≈ 20.1 µM)

**Q.** What about the MIC [2] of the same compound?
**A.** 50 µg/mL (≈ 20.1 µM)

**Q.** What about the MBC [8] of the same compound?
**A.** 3.13 µg/mL (≈ 1.26 µM)

**Q.** And the MIC [8]?
**A.** 3.13 µg/mL (≈ 1.26 µM)

**Q.** And the MBC [3]?
**A.** 1.57 to 3.13 µg/mL

**Q.** What about the MIC [3] of the same compound?
**A.** 1.57 to 3.13 µg/mL

**Q.** With “FFRHLFRGAKAIFRGARQGXRAHKVVSRYRNRDVPETDNNQEEP [SEQ ID NO: 4, Endobiotic Family 2 peptide, about 5329 Da, X is tryptophan or beta-hydroxytryptophan]” as the compound, how does the antibacterial activity [9] read?
**A.** potent antibacterial activity

**Q.** Which “activity against several human pathogens” value [10] does the source give for “HVIGRFIHHFFCCFFHHIFRGIVH (cysteine pairing not given here; also: dimer) [SEQ ID NO: 6]” here?
**A.** active against several human pathogens

**Q.** What about the hemolytic activity [11] of the same compound?
**A.** no detectable hemolytic activity

Reference: patent publication US20030105281A1, “Antimicrobial peptides isolated from mast cells” (priority 2000, published 2003)
